Source: patent US5985926A, “Method for inhibiting intracellular viral replication” (Cell Therapeutics, Inc., priority 1997, dated 1999)

What was measured:
[1] = test system: HIV-LTR promoter (tat transactivation) in 293-EBNA cells; assay: AP reporter gene expression from HIV-LTR promoter with tat expression vector, 293-EBNA cells; format: cell-based, HIV; human cells; settings: 293-EBNA cells, HIV promoter, in words
Description: The plasmid construct, pHIV.AP, using the human immunodeficiency virus (HIV) long terminal repeat (LTR) promoter (derived from pU3R-III CAT, Sodroski et al., Science 227:171, 1985) to direct the expression of the sPAP reporter gene, was made by replacing the CMV promoter region from pCMV.AP with the HIV-LTR promoter. PHIV.AP was co-transfected with pSV2tat72, an expression vector for the 72 amino acids tat protein from HIV (Frankel and Pabo, Cell 55:1189-1193, 1988), into 293-EBNA cells (Invitrogen). The cultured cells were treated with various concentrations of the compounds. The expression of the alkaline phosphatase (AP) reporter gene in the individual cultures was measured by following change in absorbance at 405 nm of the cell conditioned media in the presence of a suitable substrate (e.g., ortho-nitrophenol phosphate) (Berger et al., Gene 66:1-10, 1988).
We set up a cell-based system with a cell line cotransfected with an expression plasmid using HIV-1-LTR promoter to direct synthesis of AP reporter gene and an expression plasmid to direct synthesis of the first 72 amino acids of tat protein. Plasmid pREP7 (Invitrogen) was converted to pREP7b by deleting 2,040 bp EBNA-1 coding region and by replacing the pBR322 origin of replication (ori) with the pBluescript KS (Stratagene) ori region. The cDNA for secreted placental alkaline phosphatase (AP) was generated by PCR with the primers (5'-[…]-3')(SEQ ID NO. 3) and (5'-[…]-3') (SEQ ID NO. 4)using the plasmid pGEM-4Z/PLAP489 (American Type Culture Collection) as the template. The 2,000 bp Xba I-Sal I fragment obtained was ligated into a Nhe I/Xho I vector derived from pREP7b to generate the plasmid pREP7b.AP. The 44 bp Xba I-Bgl II fragment from plasmid pMEP4 (Invitrogen)and the 36 bp BamH I-Kpn I fragment from pREP7 were ligated into the Xba I-Kpn I vector fragment from pREP7b.AP to generate the plasmid pMCS.AP. The 720 bp Xho I-Hind III fragment encoding the HIV-LTR promoter from the plasmid pU3R-III-CAT (Sodroski et al., Science 227:171-173, 1985) was ligated into the Xho I-Hind III vector fragment of PMCS.AP to generate the plasmid pHIV.AP. The CMV promoter was derived from the 600 bp Spe I-Asp718 I fragment from pCEP4 (Invitrogen). The 360 bp SV40 early promoter fragments were produced from pSV2tat72 (Frankel et al., Cell 55:1189-1193,1988) by PCR using the primers (5'-[…]-3') (SEQ ID NO. 5) and (5'-[…]-3') (SEQ ID NO. 6). The 480 bp phosphoglycerate kinase (PGK) promoter fragment was amplified from human placental genomic DNA (Promega, Madison, Wis.) based on published sequence (Pfeifer et al., Science 246:810-813, 1990) using the primers (5'-[…]-3') (SEQ ID NO. 7) and (5'-[…]-3') (SEQ ID NO. 8). The above fragments were ligated into the Xba I-Asp718 I vector fragment of pHIV.AP to generate pHIV2.AP, pHIV3.AP, pCMV.AP, pSVE.AP and PPGK.AP respectively. The tat-expression plasmid directed by HIV-LTR promoter, pHIV.tat, was generated by inserting the 400 bp EcoRV-HindIII fragment from pHIV.AP into the PvuII-HindIII vector fragment from pSV2tat72 (Frankel et al., Cell 55:1189-1193, 1988).
Transient transfections with various expression plasmids were performed on a human kidney embryonic cell line 293-EBNA (Invitrogen) using the cationic lipid DOTAP (Boehringer Mannheim). The cell culture media were changed 24 hr after transfection into a serum-free medium AIM V (Life Technologies) before addition of compounds or TNF-α (PeproTech) at the appropriate concentrations. AP activity measured by a colorimetric assay (Berger et al., Gene 66:1-10, 1988) was performed 19-24 hr later.

[2] = test system: U1 cells; assay: Cytotoxicity in U1 cells; format: cell-based, human
Description: We studied the effect of CT-2576 on HIV expression in a chronically HIV-1 infected promonocytic U1 cell line (Folks et al., Science 238:800-802, 1987). […] TNF-α and other cytokines can induce HIV expression in U1 cells. U1 cells also express HIV constitutively when grown to a relatively high density. […] An inhibitor of viral reverse transcriptase is expected to only protect new cells from becoming infected but not to affect viral production from cells already infected with HIV. […] While TNF-α induces HIV expression through activation of NFκB, IL-6 and IL-1 also stimulates HIV expression through other pathways independent of NFκB activation in U1 cells.

[3] = test system: CMV promoter in 293-EBNA cells; assay: AP reporter gene expression from CMV promoter, 293-EBNA cells stably transfected with pCMV.AP; format: cell-based, human cytomegalovirus; human cells
Description: An assay for measuring the anti-viral activity of the compounds involves testing the abilities of the compounds to inhibit gene expression directed by specific viral promoters in cell lines. Specifically, a plasmid construct, pCMV.AP, using the human cytomegalovirus (CMV) enhancer and promoter to direct the expression of the secreted human placental alkaline phosphatase reporter gene were transformed into a tumor cell line (e.g., 293-EBNA cells). The cultured cells were treated with various concentrations of the compounds. The expression of the alkaline phosphatase (AP) reporter gene in the individual cultures can then be measured by following the change in absorbance at A405 of the cell conditioned media in the presence of a suitable substrate (e.g., ortho-nitrophenol phosphate) (Berger et al., Gene 66:1,1988).
The construction of expression vectors for secreted placental alkaline phosphatase (sPAP) was performed by obtaining a mammalian episomal expression vector pBL3, derived from the plasmids pMEP4 and pCEP4 (Invitrogen Corp). Specifically, a 600 bp Spe I--Kpn I fragment spanning the CMV promoter from pCEP4 and a 9500 bp Xba I--Kpn I vector fragment from pMEP4 were isolated and ligated together to form pBL3. Full length sPAP cDNA was amplified by PCR using the plasmid pGEM4Z/SEAP (ATCC) as template with primers 5'-[…]-3' (SEQ ID NO. 1) and 5'-[…]-3' (SEQ ID NO. 2). The PCR product was then digested with Xba I and Sal I and inserted between the Nhe I site and the Xho I site within the multiple cloning region of pBL3. The resulting plasmid was designated as PCMV.AP.

[4] = test system: 293-EBNA cells; assay: Viability of 293-EBNA cells, Alamar Blue; format: cell-based, human
Description: (§1) Cell viability was measured by a colorimetric assay that uses Alamar Blue dye (Alamar, Inc.) to report cell proliferation, viability and cytotoxicity. This vital dye indicates cell activity by serving as substrate for mitochrondrial dehydrogenases for the formation of soluble dyes which can be quantitated by determining the difference in absorbance between A570 and A600 using a plate reader.
as §1, with “[…]” for “colorimetric”
This example illustrates that CT2576 suppressed both tat-dependent and TNF-α induced HIV-LTR transcription with an IC50 of approximately 10 μM. Study of the effects of CT2576 on cell toxicity was performed using the Alamar Blue™ dye (Alamar Biosciences) according to the manufacturer's instructions. CT2576 was not toxic to 293-EBNA cells at concentrations up to 35 μM. To show CT2576 can inhibit HIV expression, CT2576 was tested for the ability to block HIV p24 antigen expression in chronically or acutely infected cells. Specifically, CT2576 inhibited the TNF-α and IL-6 induced and the constitutive expression of HIV in the chronically infected U1 cells and in peripheral blood lymphocytes (PBL) freshly infected with a HIV strain from a clinical isolate with an IC50 of approximately 1 μM. Pharmacological inhibition of synthesis of selected PL may therefore be a novel therapeutic approach to suppression of HIV replication.

[5] = test system: 293-EBNA cells
[6] = test system: NFκB; assay: NFκB activation in 293tat cells, electrophoretic mobility shift assay; format: cell-based, human; settings: CT2576 12 μM, TNF-α 40 ng/ml or IL-1β 1 ng/ml
Description: (§2) Nuclear extracts (A) from 293tat cells were tested by EMSA for activation of NFκB. A radiolabeled 40-mer covering the NFκB sequences in the HIV promoter was used as a probe. Cells were incubated with CT2576 at 12 μM, human TNF-α at 40 ng/ml or IL-1β at 1 ng/ml, or pre-incubated for 30 min. with CT2576 and then stimulated with TNF-α or IL-1β for 18 hr prior to making extracts. RNA was extracted from 293tat cells (B) after treatment with CT2576 without or with TNF-α or IL-1β for 18 hr. Northern blots analysis were performed using probes derived from AP cDNA and G3PDH cDNA as a control for normalization of mRNA level. AP activity was determined in cell supernatants from the various samples.
(§3) NFκB binding activity in nuclear extracts (Dignam et al., Nucleic Acids Res. 11:1475-1489, 1983) of cells was measured by electrophoretic mobility-shift assay (EMSA) (Carthew et al., Cell 43:439-448, 1985) using 5'-labeled double-stranded synthetic DNA with two NF-κB motifs. Northern blot analysis was performed with total RNA run on 1% agarose/formaldehyde gel and probed with ^32 P-labeled cDNA of AP and glyceraldehyde-3-phosphate dehydrogenase (G3PDH).

[7] = test system: AP mRNA in 293tat cells; assay: AP mRNA level in 293tat cells, Northern blot; format: cell-based, human; settings: with TNF-α or IL-1β
Description: as §2, §3

Molecule	inhibition of AP expression (HIV-LTR promoter) [1]	cytotoxicity in U1 cells at 25 μM ([2]; 25 μM, FIG. 12 bottom panel, TNFα)	cytotoxicity in U1 cells ([2]; FIG. 12 top panel, constitutive)	IC50 ([3]; Homo sapiens, 293-EBNA, FIG. 8, read-out: concentration inhibiting AP activity by 50% (CMV assay)) [µM]	inhibition of AP expression (CMV promoter) ([3]; in words)	cytotoxic effect on 293-EBNA cells (Alamar Blue) [4]	effect on cell viability / cytotoxicity [5]	activation of NFκB [6]	AP transcript / mRNA steady-state level [7]
CCCCCCCCNCC(O)CCCCCCCCCn1c(=O)ccn(C)c1=O (stereo not drawn) [CT1827, 3-(11-octylamino-10-hydroxyundecyl)-1-methyluracil]	inhibit HIV promoter driven expression	some cytotoxicity	some cytotoxicity	2 to 6	inhibit CMV promoter driven expression	no significant cytotoxic effect	minimal cytotoxic effects		
IL-1β: cytokine used as stimulant								NFκB was activated	induction of AP transcripts
